Read-outs that look alike come from different tables or passages of the source.
How the values were obtained:
Type in all cases: binding, Tritirachium album limber
[1] = target: T1, proteinase K (PK) (Parengyodontium album, UniProt P06873); assay: Fluorescence quenching of proteinase K by MYR/MYT (Stern–Volmer, double-logarithmic and Van't Hoff analysis); conditions: for Stern–Volmer constant Ksv: 3.46 μM PK, pH 8.0; for Kd: double logarithmic equation, read-out: binding constant KA (converted); for fluorescence quenching rate constant Kq: τ0 1 × 10^−8 s; for enthalpy change ∆H: Van't Hoff equation, 290, 300, 310 K; for fluorescence quenching process (mechanism): from Kq versus 2 × 10^10 L·mol^−1·s^−1
T1 construct: It is a single-chain protein consisting of 279 amino acid residues and has a molecular weight of 28,930 Da; purchased Jiuding Chemicals (Shanghai, China)
Source text: Fluorescence spectroscopy is an effective method used to investigate conformational changes of proteins and binding parameters of ligands to fluorophore residues of proteins such as Trp, Tyr or Phe. PK contains two Trp residues (Trp8 and Trp212), which make it possible to emit fluorescence. […] The process by which this phenomenon occurs is called fluorescence quenching, which is the result of the altered microenvironment of PK. To eliminate the interference of fluorescence quenching from the inner filter effect, the experiments were corrected for fluorescence intensity using Equation (1). (1) Fcorr=Fobs×e^(Aex+Aem)/2 where Fcorr and Fobs are the fluorescence emission intensity values of the corrected and pre-corrected systems, respectively. Aex and Aem are the UV–Vis absorption intensities of quencher and PK at excitation and emission wavelengths, respectively.
To investigate the differences in the fluorescence quenching patterns of the PK-MYR and PK-MYT complexes, the Stern–Volmer equation (Equation (2)) was used for analysis.
Fluorescence quenching could be categorized into two processes, namely dynamic quenching and static quenching. Dynamic quenching occurs when the quencher collides with biological macromolecules, while static quenching is caused by the formation of complexes. For the dynamic process, the increase in Ksv along with the increase in temperature is expected, and the opposite is seen for the static quenching process. […] Consequently, we know that the combination of PK and MYR/MYT could form PK-MYR and PK-MYT complexes, leading to the static quenching mechanism.
Normally, the maximum collisional quenching constant Kq is about 2 × 10^10 L·mol^−1·s^−1 for small molecule quenchers and biomolecules.
The binding constants and the number of binding sites can be calculated by using a double logarithmic equation [20, 21] (Equation (3)). (3) log[(F0−F)/F]=logKA+nAlog[Q] where KA represents the binding constant between the biomolecule and the quencher, and nA implies the number of binding sites between the quencher and the fluorophor. […] It could be proposed that the binding constant of PK-MYT is larger than that of PK-MYR at the temperature of 290 K, and these two complexes share a similar binding site number n around one.
(4) lnKA=−ΔH/RΤ+ΔS/R (5) ΔG=−RTInKA=ΔH−TΔS where R is the molar gas constant with a general value of 8.314 J·mol^−1·K^−1. ∆H and ∆S are the enthalpy and entropy changes during the fluorescence quenching, respectively. The ∆G in Equation (5) is the Gibbs free energy change in the reaction. In general, the interaction between quenchers and fluorophors can be explained by four forces, including hydrogen bonding, van der Waals forces, electrostatic forces, and hydrophobic interactions. The sign and magnitude of ∆H and ∆S can be used to distinguish the binding forces and properties of the complexes. When ∆H and ∆S are positive, hydrophobic interactions dominate; when both ∆H and ∆S are negative, they can be explained as hydrogen bonding and van der Waals forces; when ∆H and ∆S are very low negative or positive values, there exist electrostatic interactions.
(§1) A Cary Eclipse fluorescence spectrometer (Varian, Palo Alto, CA, USA) was used to determine specific changes in the fluorescence emission of PK at different temperatures. All measurements were recorded at an excitation wavelength of 278 nm and the emission wavelength of 290–450 nm. The excitation and emission slits were adjusted to 5 nm. In synchronous fluorescence measurements, ∆λ was set to 60 and 15 nm.

[2] = target: T1, proteinase K (PK); assay: Förster resonance energy transfer (FRET) between PK (donor) and ligand (acceptor); conditions: 290 K; PK and ligand 3.46 μM
Source text: The distance and energy transfer between two chromophores, commonly known as the donor and the acceptor, may be computed by the Förster resonance energy transfer (FRET) theory. […] The energy transfer efficiency and binding distance were estimated according to Equation (6). (6) E=1−F/F0=RC^6/RC^6+r^6 where E is the energy transfer efficiency between the donor and the acceptor, r is the binding distance between the donor and the acceptor, and RC is the critical distance when the energy transfer efficiency is 50%, the value of which can be calculated using Equation (7). (7) RC^6=8.8×10^−25(K^2⋅Φ⋅n^−4⋅J) where K^2 is the spatial orientation factor associated with the geometry of the dipole donor and acceptor and generally takes the value of 2/3. Φ is the fluorescence quantum yield of the donor. The symbol n is the average refractive index of the medium and usually takes the value of 1.336 as the average value of water and organic matter. J is the spectral overlap integral between the fluorescence emission spectrum of the donor and the absorption spectrum of the acceptor, and the value is calculated by Equation (8). (8) J=∑(FD(λ)⋅ε(λ)⋅λ^4⋅Δλ)/∑(FD(λ)⋅Δλ) where FD(λ) is the corrected fluorescence intensity of the donor in the wavelength range, ε(λ) is the molar absorption constant of the acceptor at the wavelength, and ∆λ is the span of the wavelength. Following the FRET theory, the main factors affecting the energy transfer efficiency include the fluorescence production of the donor, the overlap of the fluorescence emission spectrum of the donor with the UV–Vis absorption spectrum of the acceptor, and the binding distance between the donor and the acceptor that must be within a specified range of 1 to 10 nm.
Förster resonance energy transfer (FRET) was tracked by overlapping PK emission spectrum (donor) with MYR or MYT absorption spectrum (acceptor). A concentration of 3.46 μM PK was chosen for the fluorescence emission spectroscopy measurements.

[3] = target: T1, proteinase K (PK); assay: Site-tagged competition experiments with ibuprofen and cytisine; conditions: for Ksv of free PK: no site marker; for Ksv of PK–cytisine complex as % of that of free PK: site marker cytisine; for Ksv of PK–ibuprofen complex as % of that of free PK: site marker ibuprofen
Source text: To determine the binding site of PK, two typical ligands including ibuprofen and cytisine were chosen to perform competitive binding experiments. […] The site-labeling experiments were still performed using Equations (1) and (2) for correction and data analysis, respectively. […] It has been well known that neutral compounds such as ibuprofen and cytisine are likely to bind with proteins through hydrophobic interactions and hydrogen binding. […] This is consistent with the results obtained from the thermodynamic calculations.
For in site labeling competition experiments, an agent such as ibuprofen or cytisine of 3.46 μM was first mixed with PK. […] The excitation wavelengths for PK–ibuprofen and PK–cytisine were 265 and 280 nm, respectively. Fluorescence spectra were analyzed using the Stern–Volmer equation.

[4] = target: T1, proteinase K (PK); assay: Synchronous fluorescence spectroscopy of PK with ligand; conditions: 300 K, ligand increased from 0.0 to 25.0 μM; for maximum emission wavelength of PK, synchronous fluorescence (Figure 6B,D): peak near 274 nm; for maximum emission wavelength of PK, synchronous fluorescence (Figure 6A / 6C): peak near 279 nm
Protocol: Synchronous fluorescence spectroscopy studies were performed to observe changes in the molecular environment of Tyr residues and Trp residues in the host structure, which are mainly responsible for fluorescence emission. Therefore, we used the characteristic information of Tyr and Trp residues, ∆λ = 15 nm and ∆λ = 60 nm, respectively, to probe the changes in the PK-MYR and PK-MYT complexes.
as §1

[5] = site marker cytisine 3.46 μM, room temperature, 1 h
[6] = site marker ibuprofen 3.46 μM, room temperature, 1 h

T1 sequence (P06873 106-384): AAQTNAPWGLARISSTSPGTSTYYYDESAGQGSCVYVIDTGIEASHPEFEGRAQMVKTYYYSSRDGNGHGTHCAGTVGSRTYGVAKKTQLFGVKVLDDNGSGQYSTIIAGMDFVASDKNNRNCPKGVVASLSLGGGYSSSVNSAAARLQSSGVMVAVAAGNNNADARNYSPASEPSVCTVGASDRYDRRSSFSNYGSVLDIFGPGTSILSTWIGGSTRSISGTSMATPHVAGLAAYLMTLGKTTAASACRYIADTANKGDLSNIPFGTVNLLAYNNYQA

Row | Molecule | Gibbs free energy change ∆G ([1]; T 290 K) [kcal/mol] | number of binding sites nA ([1]; T 290 K) | Stern–Volmer constant Ksv ([1]; T 290 K) | fluorescence quenching rate constant Kq ([1]; T 290 K) | Gibbs free energy change ∆G ([1]; T 300 K) [kcal/mol] | number of binding sites nA ([1]; T 300 K) | Stern–Volmer constant Ksv ([1]; T 300 K) | fluorescence quenching rate constant Kq ([1]; T 300 K) | Gibbs free energy change ∆G ([1]; T 310 K) [kcal/mol] | number of binding sites nA ([1]; T 310 K) | Stern–Volmer constant Ksv ([1]; T 310 K) | fluorescence quenching rate constant Kq ([1]; T 310 K) | enthalpy change ∆H [1] [kcal/mol] | fluorescence quenching process (mechanism) [1] | critical distance RC [2] [nm] | energy transfer efficiency E [2] | Ksv of free PK [3] [L/mol] | Ksv of PK–cytisine complex as % of that of free PK [3] [%] | Stern–Volmer equation quenching constant KSV [3, 5] | Ksv of PK–ibuprofen complex as % of that of free PK [3] [%] | also measured
1 | O=c1c(O)c(-c2cc(O)c(O)c(O)c2)oc2cc(O)cc(O)c12 [MYR, Myricetin] | -6.601 | 1.0 | 3.57 10^4 L·mol^−1 | 3.57 10^12 L·mol^−1·s^−1 | -6.03 | 0.9 | 2.46 10^4 L·mol^−1 | 2.46 10^12 L·mol^−1·s^−1 | -5.442 | 0.9 | 1.90 10^4 L·mol^−1 | 1.90 10^12 L·mol^−1·s^−1 | -23.42 | static | 3.61 | 0.105 | 24600 | 70.73 | 1.74 10^4 L·mol^−1 | 69.51 | Kd ([1]; T 290 K): 16.9 µM; Kd ([1]; T 300 K): 40.5 µM; Kd ([1]; T 310 K): 114 µM; binding distance r [2]: 5.11 nm; Stern–Volmer equation quenching constant KSV [3, 6]: 1.71 10^4 L·mol^−1; Stern–Volmer equation quenching constant KSV ([3]; site marker: blank (free PK)): 2.46 10^4 L·mol^−1; maximum emission wavelength of PK, synchronous fluorescence (Figure 6B,D) [4]: no shift; maximum emission wavelength of PK, synchronous fluorescence (Figure 6A / 6C) [4]: 279.0 nm
2 | Myricitrin [MYT] | -6.558 | 1.1 | 2.20 10^4 L·mol^−1 | 2.20 10^12 L·mol^−1·s^−1 | -6.018 | 1.0 | 2.06 10^4 L·mol^−1 | 2.06 10^12 L·mol^−1·s^−1 | -5.28 | 0.9 | 1.88 10^4 L·mol^−1 | 1.88 10^12 L·mol^−1·s^−1 | -25.098 | static | 3.42 | 0.128 | 20600 | 38.14 | 0.78 10^4 L·mol^−1 | 61.52 | Stern–Volmer equation quenching constant KSV [3, 6]: 1.27 10^4 L·mol^−1; Stern–Volmer equation quenching constant KSV ([3]; site marker: blank (free PK)): 2.06 10^4 L·mol^−1; maximum emission wavelength of PK, synchronous fluorescence (Figure 6B,D) [4]: 274.0 to 276.0 nm; maximum emission wavelength of PK, synchronous fluorescence (Figure 6A / 6C) [4]: 279.0 to 280.0 nm
